Consider 4 compounds from patent US20240299352A1, “COMBINATION THERAPIES WITH SETD2 INHIBITORS” (Epizyme, Inc., priority 2021, published 2024).

Assay [1] relates to DOHH2. The experiment in a line: Co-treatment combination study with Cpd. No. 15, CellTiter-Glo viability, Loewe Volume. It is filed as cell-based. Conditions: in combination with Cpd. No. 15, seven days, DLBCL cell line DOHH2. The procedure:
(§1) Mantle cell lymphoma (MCL) and diffuse large B-cell lymphoma (DLBCL) cell line cultures in log-linear growth rate were treated with combinations of Cpd. No. 15 and combination partners according to a co-treatment model. […] No. 15 and the combination partner. […] Each combination was tested in quadruplicate wells. The final concentration of DMSO (vehicle) in the assay was 0.1% v/v. Fifty microliters of cell line suspension were directly dispensed to the assay-ready plates with an automated multichannel dispenser on to 384-well assay-ready plates. Assay plates were incubated for seven days unless otherwise indicated in a humidified atmosphere of 5% CO2 at 37° C. Quantification of the effect of single agents or combinations on cell viability was performed through measurement of cellular adenosine triphosphate (ATP) using a CellTiter-Glo® (Promega, Madison, WI) Luminescent Cell Viability Assay. Luminescence was detected using a SpectraMax M5 microplate reader (Molecular Devices, Sunnyvale, CA). Concentration response plots were generated in GraphPad Prism version 7.0 for Windows, GraphPad Software, (La Jolla, California) and curves fitted to a four-parameter logistic model with variable slope. Percent of inhibition was calculated at each treatment concentration.
(In general: In ATP-based viability assays light output follows the ATP content of the culture.)

The test system of assay [2] is KARPAS422. The description is as above. It is filed as cell-based. Conditions: in combination with Cpd. No. 15, seven days, DLBCL cell line KARPAS422. The procedure: as §1
The subject of assay [3] is SUDHL10. The description is as above. Format: cell-based. Conditions: in combination with Cpd. No. 15; 5-Day Cotreatment; DLBCL cell line SUDHL10. The procedure:
as §1

Assay [4] has as its system SUDHL2. The assay is described as above. It is filed as cell-based. Conditions: in combination with Cpd. No. 15, seven days, DLBCL cell line SUDHL2. The procedure:
as §1

The subject of assay [5] is HT. Described as above. Format: cell-based. Conditions: in combination with Cpd. No. 15, seven days, DLBCL cell line HT. The procedure: as §1
Assay [6] relates to WILL2. Described as above. Conditions: in combination with Cpd. No. 15, seven days, DLBCL cell line WILL2. Format: cell-based. The method, then:
as §1

Assay [7] relates to DB. The description is as above. It is filed as cell-based. Conditions: in combination with Cpd. No. 15, seven days, DLBCL cell line DB. The procedure:
as §1

Assay [8] relates to SUDHL5. The assay is described as above. It is filed as cell-based. Conditions: in combination with Cpd. No. 15, seven days, DLBCL cell line SUDHL5. The method, then: as §1
Assay [9] deals with TOLEDO. Described as above. Format: cell-based. Conditions: in combination with Cpd. No. 15, seven days, DLBCL cell line TOLEDO. The method, then: as §1
The subject of assay [10] is WSUNHL. Described as above. Format: cell-based. Conditions: in combination with Cpd. No. 15, seven days, DLBCL cell line WSUNHL. The procedure: as §1
The test system of assay [11] is SUDHL8. The assay is described as above. It is filed as cell-based. Conditions: in combination with Cpd. No. 15, seven days, DLBCL cell line SUDHL8. The method, then:
as §1

In assay [12] the test system is Pfeiffer. Described as above. Format: cell-based. Conditions: in combination with Cpd. No. 15, seven days, DLBCL cell line Pfeiffer. The method, then:
as §1

The subject of assay [13] is diffuse large B-cell lymphoma (DLBCL) cell lines. The experiment in a line: Co-treatment combination study with Cpd. No. 15, further cell lines (Table F), CellTiter-Glo viability, Loewe Volume. Format: cell-based. Conditions: for Combination effect with Cpd. No. 15 (Loewe Volume class), Ri1: co-treatment with Cpd. No. 15, cell line Ri1 (Cat. No. 96090512-1VL); for Combination effect with Cpd. No. 15 (Loewe Volume class), TMD8: co-treatment with Cpd. No. 15, cell line TMD8 (Cat. No. M-097); for Combination effect with Cpd. No. 15 (Loewe Volume class), WILL1: co-treatment with Cpd. No. 15, cell line WILL1 (Cat. No. ACC 651). The method, then:
as §1

For assay [14] the test system is unchanged. The experiment in a line: Pre-treatment model combination study with Cpd. No. 15 (7 days pre-treatment, then combination; Table G), CellTiter-Glo viability, Loewe Volume. Conditions: 7 days pre-treatment with Cpd. No. 15, then combination.
Assay [15] has as its system Z138. The experiment in a line: Co-treatment combination study with Cpd. No. 15, CellTiter-Glo viability, Loewe Volume. Conditions: in combination with Cpd. No. 15, seven days, mantle cell lymphoma cell line Z138 (CRL-3001). Format: cell-based. The procedure: as §1
In assay [16] the test system is REC1. The description is as above. Conditions: in combination with Cpd. No. 15, seven days, mantle cell lymphoma cell line REC1 (CRL-3004). Format: cell-based. The method, then: as §1
The test system of assay [17] is JEKO1. The description is as above. Format: cell-based. Conditions: in combination with Cpd. No. 15, seven days, mantle cell lymphoma cell line JEKO1 (CRL-3006). The procedure: as §1
For assay [18], the system named is GRANTA519. Described as above. Conditions: in combination with Cpd. No. 15, seven days, mantle cell lymphoma cell line GRANTA519 (ACC 342). Format: cell-based. The method, then: as §1
Assay [19] concerns MAVER1. Described as above. It is filed as cell-based. Conditions: in combination with Cpd. No. 15, seven days, mantle cell lymphoma cell line MAVER1 (CRL-3008). The method, then: as §1
The test system of assay [20] is JVM2. The assay is described as above. It is filed as cell-based. Conditions: in combination with Cpd. No. 15, seven days, mantle cell lymphoma cell line JVM2 (CRL-3002). The procedure: as §1
The test system of assay [21] is MINO. The assay is described as above. Format: cell-based. Conditions: in combination with Cpd. No. 15, seven days, mantle cell lymphoma cell line MINO (CRL-3000). The procedure:
as §1

Assay [22] deals with SUDHL6. The description is as above. Format: cell-based. Conditions: in combination with Cpd. No. 15, seven days, DLBCL cell line SUDHL6. The method, then: as §1

In the case of `N.N.O=C([O-])C1(C(=O)[O-])CCC1.[Pt+2]` [Carboplatin, carboplatin], the “Combination effect (Loewe Volume) DOHH2” value in assay [1] is “Additivity (between 1 and −1: additivity)”. Moreover, in assay [2], the “Combination effect (Loewe Volume) KARPAS422” value was “Additivity (between 1 and −1: additivity)”. In addition, the “Combination effect (Loewe Volume) SUDHL10” value in assay [3] was “Additivity (between 1 and −1: additivity)”. Also, the “Combination effect (Loewe Volume) SUDHL2” value in assay [4] is “Additivity (between 1 and −1: additivity)”. For the same compound, the “Combination effect (Loewe Volume) HT” value in [5] was “Additivity (between 1 and −1: additivity)”. In addition, in assay [6], the “Combination effect (Loewe Volume) WILL2” value is “Additivity (between 1 and −1: additivity)”. In addition, the “Combination effect (Loewe Volume) DB” value in [7] was “Additivity (between 1 and −1: additivity)”. Further, the “Combination effect (Loewe Volume) SUDHL5” value in assay [8] was “Additivity (between 1 and −1: additivity)”. Besides, the “Combination effect (Loewe Volume) TOLEDO” value in assay [9] is “Additivity (between 1 and −1: additivity)”. For the same compound, in [10], the “Combination effect (Loewe Volume) WSUNHL” value was “Synergy (VLoewe>1: synergy)”. Further, the “Combination effect (Loewe Volume) SUDHL8” value in assay [11] was “Synergy (VLoewe>1: synergy)”. The “Combination effect (Loewe Volume) Pfeiffer” value in assay [12] was “Additivity (between 1 and −1: additivity)”. Further, in assay [13], the “Combination effect with Cpd. No. 15 (Loewe Volume class), Ri1” value is “Additivity (between 1 and −1: additivity)”; the “Combination effect with Cpd. No. 15 (Loewe Volume class), TMD8” value was “Additivity (between 1 and −1: additivity)”; the “Combination effect with Cpd. No. 15 (Loewe Volume class), WILL1” value is “Additivity (between 1 and −1: additivity)”. In addition, the “Combination effect with Cpd. No. 15 (Loewe Volume class), Farage” value in [14] (cell line Farage (Cat. No. CRL-2630)) is “Additivity (between 1 and −1: additivity)”. In assay [14] (cell line HT (Cat. No. CRL-2631)), the “Combination effect with Cpd. No. 15 (Loewe Volume class), HT” value is “Synergy (VLoewe>1: synergy)”. Besides, the “Combination effect with Cpd. No. 15 (Loewe Volume class), OCILY7” value in assay [14] (cell line OCILY7 (Cat. No. ACC 688)) is “Additivity (between 1 and −1: additivity)”. The “Combination effect with Cpd. No. 15 (Loewe Volume class), WILL2” value in assay [14] (cell line WILL2 (Cat. No. ACC 652)) was “Synergy (VLoewe>1: synergy)”.
Turning to `COc1c(OCCCN2CCOCC2)ccc2c1N=C(NC(=O)c1cnc(N)nc1)N1CCN=C21` [Copanlisib, copanlisib], the “Combination effect (Loewe Volume) Z138” value in [15] was “Additivity (between 1 and −1: additivity)”. Moreover, the “Combination effect (Loewe Volume) REC1” value in [16] was “Additivity (between 1 and −1: additivity)”. Besides, the “Combination effect (Loewe Volume) JEKO1” value in assay [17] was “Additivity (between 1 and −1: additivity)”. Besides, the “Combination effect (Loewe Volume) GRANTA519” value in [18] is “Additivity (between 1 and −1: additivity)”. In addition, the “Combination effect (Loewe Volume) MAVER1” value in assay [19] was “Synergy (VLoewe>1: synergy)”. In [20], the “Combination effect (Loewe Volume) JVM2” value was “Additivity (between 1 and −1: additivity)”. The “Combination effect (Loewe Volume) MINO” value in [21] is “Additivity (between 1 and −1: additivity)”.
Regarding `CC(=O)c1c(C)c2cnc(Nc3ccc(N4CCNCC4)cn3)nc2n(C2CCCC2)c1=O` [Palbociclib, palbociclib], in [15], the “Combination effect (Loewe Volume) Z138” value is “Additivity (between 1 and −1: additivity)”. The “Combination effect (Loewe Volume) REC1” value in [16] was “Additivity (between 1 and −1: additivity)”. Further, in assay [17], the “Combination effect (Loewe Volume) JEKO1” value was “Synergy (VLoewe>1: synergy)”. In addition, the “Combination effect (Loewe Volume) GRANTA519” value in assay [18] is “Additivity (between 1 and −1: additivity)”. In [19], the “Combination effect (Loewe Volume) MAVER1” value is “Synergy (VLoewe>1: synergy)”. Also, the “Combination effect (Loewe Volume) JVM2” value in assay [20] is “Additivity (between 1 and −1: additivity)”. In addition, in [21], the “Combination effect (Loewe Volume) MINO” value was “Additivity (between 1 and −1: additivity)”.
For the compound rituximab, in assay [1], the “Combination effect (Loewe Volume) DOHH2” value is recorded as “Synergy (VLoewe>1: synergy)”. Moreover, the “Combination effect (Loewe Volume) Z138” value in [15] is “No Effect”. For the same compound, the “Combination effect (Loewe Volume) KARPAS422” value in [2] is on record as “No Effect”. Also, the “Combination effect (Loewe Volume) SUDHL10” value in assay [3] is “Additivity (between 1 and −1: additivity)”. Also, the “Combination effect (Loewe Volume) SUDHL2” value in assay [4] is reported as “No Effect”. For the same compound, the “Combination effect (Loewe Volume) REC1” value in [16] was “Additivity (between 1 and −1: additivity)”. The “Combination effect (Loewe Volume) HT” value in assay [5] was “Additivity (between 1 and −1: additivity)”. Further, the “Combination effect (Loewe Volume) JEKO1” value in assay [17] is “Synergy (VLoewe>1: synergy)”. Moreover, in assay [6], the “Combination effect (Loewe Volume) WILL2” value is “Additivity (between 1 and −1: additivity)”. Besides, in assay [7], the “Combination effect (Loewe Volume) DB” value was “No Effect”. For the same compound, in assay [22], the “Combination effect (Loewe Volume) SUDHL6” value was “Synergy (VLoewe>1: synergy)”. Also, the “Combination effect (Loewe Volume) TOLEDO” value in assay [9] was “Additivity (between 1 and −1: additivity)”. Moreover, the “Combination effect (Loewe Volume) GRANTA519” value in [18] was “Additivity (between 1 and −1: additivity)”. In addition, in [10], the “Combination effect (Loewe Volume) WSUNHL” value was “Additivity (between 1 and −1: additivity)”. The “Combination effect (Loewe Volume) MAVER1” value in [19] is “Synergy (VLoewe>1: synergy)”. The “Combination effect (Loewe Volume) SUDHL8” value in [11] is “Additivity (between 1 and −1: additivity)”. Further, the “Combination effect (Loewe Volume) Pfeiffer” value in [12] is reported as “No Effect”. Also, the “Combination effect (Loewe Volume) JVM2” value in assay [20] is “Additivity (between 1 and −1: additivity)”. Further, in [21], the “Combination effect (Loewe Volume) MINO” value is reported as “No Effect”. For the same compound, in [13], the “Combination effect with Cpd. No. 15 (Loewe Volume class), Ri1” value is “Additivity (between 1 and −1: additivity)”; the “Combination effect with Cpd. No. 15 (Loewe Volume class), TMD8” value is recorded as “No Effect”; the “Combination effect with Cpd. No. 15 (Loewe Volume class), WILL1” value is listed as “No Effect”.
